Test results from patent US20110053897A1 (IRM LLC, priority 2009, published 2011).

Target: T1, Syk kinase (Homo sapiens, UniProt P43405)
T1 construct: purchased
Assay: Syk kinase inhibition, Caliper LabChip off-chip mobility-shift kinase assay
Format: biochemical
Settings: Caliper LabChip assay; read-out: Syk Enzyme IC50
Method in brief: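 Purified Syk pre-incubated 15 min with compound in 100 mM HEPES pH 7.5, 1 mM DTT, 10 mM MgCl2 or MnCl2, 0.002% Brij-35, then 1.5 μM fluorescein peptide and ATP at apparent KM added; 1–1.5 h at room temperature, 4% DMSO, EDTA stop. Microfluidic mobility-shift product/substrate conversion gave % inhibition; IC50 from 12-point series (10–0.00003 μM) by 4-parameter fit.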

IC50 [nM] | Compound
204 | CC1(O)CN(c2cc(Nc3cc4ccn(CCO)c(=O)c4c(NC(C)(C)C)n3)ncn2)C1 [compound 630, 8-(tert-butylamino)-6-(6-(3-hydroxy-3-methylazetidin-1-yl)pyrimidin-4-ylamino)-2-(2-hydroxyethyl)-2,7-naphthyridin-1(2H)-one]
233 | CC(C)(C)Nc1nc(Nc2cc(N3CC(O)C3)ncn2)cc2ccn(CCO)c(=O)c12 [compound 631]
117 | CC(C)(C)Nc1nc(Nc2cc(N3CCC(=O)CC3)ncn2)cc2ccn(CCO)c(=O)c12 [compound 632]
273 | CC(=O)c1cc(Nc2cc3ccn(CCO)c(=O)c3c(NC(C)(C)C)n2)ncn1 [compound 633, 6-(6-acetylpyrimidin-4-ylamino)-8-(tert-butylamino)-2-(2-hydroxyethyl)-2,7-naphthyridin-1(2H)-one]
161 | CC(C)(C)Nc1nc(Nc2cc(N3CCC(O)CC3)ncn2)cc2ccn(CCO)c(=O)c12 [compound 634]
314 | CC(C)(C)Nc1nc(Nc2cc(-c3c[nH]nc3C(F)(F)F)ncn2)cc2ccn(CCO)c(=O)c12 [compound 635, 8-(tert-butylamino)-2-(2-hydroxyethyl)-6-(6-(3-(trifluoromethyl)-1H-pyrazol-4-yl)pyrimidin-4-ylamino)-2,7-naphthyridin-1(2H)-one]
237 | Cn1cc(-c2cc(Nc3cc4ccn(CCO)c(=O)c4c(NC(C)(C)C)n3)ncn2)cn1 [compound 636]
60 | COc1ncc(-c2cc(Nc3cc4ccn(CCO)c(=O)c4c(NC(C)(C)C)n3)ncn2)cn1 [compound 637]
96 | CC(C)(C)Nc1nc(Nc2cc(C3CCNCC3)ncn2)cc2ccn(CCO)c(=O)c12 [compound 638]
285 | CC(C)(C)Nc1nc(Nc2cc(-c3cn[nH]c3)ncn2)cc2ccn(CCO)c(=O)c12 [compound 639]
116 | CC(C)(C)Nc1nc(Nc2cc(C3CCN(CCO)CC3)ncn2)cc2ccn(CCO)c(=O)c12 [compound 640]
56 | CC(C)(O)COc1cc(Nc2cc3ccn(CCO)c(=O)c3c(NC(C)(C)C)n2)ncn1 [compound 641]
29 | CC(C)(C)Nc1nc(Nc2cc(OCCO)ncn2)cc2ccn(C[C@H](O)CO)c(=O)c12 [compound 642]
9 | C[C@@H](CO)Oc1cc(Nc2cc3ccn(C[C@H](O)CO)c(=O)c3c(NC(C)(C)C)n2)ncn1 [compound 643, 8-(tert-butylamino)-2-((S)-2,3-dihydroxypropyl)-6-(6-((S)-1-hydroxypropan-2-yloxy)pyrimidin-4-ylamino)-2,7-naphthyridin-1(2H)-one]
5 | CC(C)(C)Nc1nc(Nc2cc(OC3CCNCC3)ncn2)cc2ccn(CCO)c(=O)c12 [compound 645, 8-(tert-butylamino)-2-(2-hydroxyethyl)-6-(6-(piperidin-4-yloxy)pyrimidin-4-ylamino)-2,7-naphthyridin-1(2H)-one]
9 | CC(C)(C)Nc1nc(Nc2cc(OC3CCN(CCO)CC3)ncn2)cc2ccn(CCO)c(=O)c12 [compound 646]
14 | COCCN1CCC(Oc2cc(Nc3cc4ccn(CCO)c(=O)c4c(NC(C)(C)C)n3)ncn2)CC1 [compound 647, 8-(tert-butylamino)-2-(2-hydroxyethyl)-6-(6-(1-(2-methoxyethyl)piperidin-4-yloxy)pyrimidin-4-ylamino)-2,7-naphthyridin-1(2H)-one]
6 | CN1CCC(Oc2cc(Nc3cc4ccn(CCO)c(=O)c4c(NC(C)(C)C)n3)ncn2)CC1 [compound 648, 8-(tert-butylamino)-2-(2-hydroxyethyl)-6-(6-(1-methylpiperidin-4-yloxy)pyrimidin-4-ylamino)-2,7-naphthyridin-1(2H)-one]
6 | CN1CCC(Oc2cc(Nc3cc4ccn(C[C@H](O)CO)c(=O)c4c(NC(C)(C)C)n3)ncn2)CC1 [compound 649]
186 | Cc1ccnc(Nc2cc3ccn(CCO)c(=O)c3c(Nc3ccc(C(=O)N4CCOCC4)c(C)c3)n2)c1 [compound 650]
2410 | COCCCN(C)S(=O)(=O)c1ccc(Nc2nc(Nc3cc(C)ccn3)cc3ccn(C)c(=O)c23)cc1 [compound 651]

IC50 [nM] | Compound
660 | COCCNC(=O)c1ccc(Nc2nc(Nc3cc(C)ccn3)cc3ccn(C)c(=O)c23)cc1 [compound 652]
333 | Cc1ccnc(Nc2cc3ccn(C)c(=O)c3c(Nc3ccc(OCCN4CCOCC4)cc3)n2)c1 [compound 653]
250 | Cc1ccnc(Nc2cc3ccn(C)c(=O)c3c(Nc3ccc(C)c(S(N)(=O)=O)c3)n2)c1 [compound 654]
168 | Cc1c2ccc(Nc3nc(Nc4cnccn4)cc4ccn(CCO)c(=O)c34)cc2nn1C [compound 656]
152 | O=c1[nH]ccc2cc(NC3CCC(O)CC3)nc(Nc3ccc(N4CCOCC4)cc3)c12 (stereo not drawn) [compound 657]
99 | Cn1cc2cc(Nc3nc(Nc4c[n+]([O-])ccn4)cc4ccn(CCO)c(=O)c34)ccc2n1 [compound 658]
103 | Cn1cc2cc(Nc3nc(Nc4cnccn4)cc4ccn(CCO)c(=O)c34)ccc2n1 [compound 659]
13 | CC(C(N)=O)n1ccc2cc(Nc3cnccn3)nc(NC(C)(C)C)c2c1=O (stereo not drawn) [compound 660]
10 | CC(C)(C)Nc1nc(Nc2cnccn2)cc2ccn(CCC(N)=O)c(=O)c12 [compound 661]
17 | CC(C)(C)Nc1nc(Nc2cnccn2)cc2ccn(CC(N)=O)c(=O)c12 [compound 662]
43 | CC(C)(C)Nc1nc(-c2cnc(N)nc2)cc2ccn(CC(N)=O)c(=O)c12 [compound 663]
7 | CC(C)(C)Nc1nc(Nc2cnccn2)cc2ccn(CC(O)CO)c(=O)c12 (stereo not drawn) [compound 664, 8-(tert-butylamino)-2-(2,3-dihydroxypropyl)-6-(pyrazin-2-ylamino)-2,7-naphthyridin-1(2H)-one]
5 | CC(C(N)=O)n1ccc2cc(-c3cnc(N)nc3)nc(NC(C)(C)C)c2c1=O (stereo not drawn) [compound 665]
28 | CC(C)(C)Nc1nc(-c2cnc(N)nc2)cc2c(Cl)cn(CCO)c(=O)c12 [compound 666]
23 | CC(C)(C)Nc1nc(-c2cnc(N)nc2)cc2ccn(CC(=O)O)c(=O)c12 [compound 667]
6 | CC(C)(C)Nc1nc(Nc2cnccn2)cc2ccn(C[C@H](O)CO)c(=O)c12 [compound 669]
89 | CC(C)(Nc1nc(Nc2cnccn2)cc2ccn(CCO)c(=O)c12)C1CC1 [compound 670]
13 | Cc1cn(CCO)c(=O)c2c(NC(C)(C)C)nc(-c3cnc(N)nc3)cc12 [compound 671]
34 | CC(C)(C)Nc1nc(Nc2cnccn2)cc2ccn(C(C)(C)C(N)=O)c(=O)c12 [compound 672]
57 | CC(C)(C)Nc1nc(-c2cnc(N)nc2)cc2ccn(C(C)(C)C(N)=O)c(=O)c12 [compound 673]
7 | CC(C)(C)Nc1nc(Nc2c[n+]([O-])ccn2)cc2ccn(C[C@H](O)CO)c(=O)c12 [compound 674]

IC50 [nM] | Compound
6 | CC(C)(C)Nc1nc(Nc2c[n+]([O-])ccn2)cc2ccn(C[C@@H](O)CO)c(=O)c12 [compound 675]
120 | CC(C)(C)Nc1nc(Nc2cnccn2)cc2ccn(C[C@@H](O)c3ccccc3)c(=O)c12 [compound 676]
12 | COCC(O)Cn1ccc2cc(Nc3cnccn3)nc(NC(C)(C)C)c2c1=O (stereo not drawn) [compound 677]
78 | CC(C)(C)Nc1nc(-c2cnc(N)nc2)cc2ccn(CC(=O)N3CCOCC3)c(=O)c12 [compound 678]
12 | CC(C)(C)Nc1nc(Nc2cnccn2)cc2cc[nH]c(=O)c12 [compound 679]
643 | CC(C)(C)Nc1nc(Nc2cc(C(=O)O)ccn2)cc2ccn(CCO)c(=O)c12 [compound 680]
82 | CC(C)(C)Nc1nc(Nc2cc(C(N)=O)ccn2)cc2ccn(CCO)c(=O)c12 [compound 681]
329 | COCCNC(=O)c1ccnc(Nc2cc3ccn(CCO)c(=O)c3c(NC(C)(C)C)n2)c1 [compound 682]
595 | CN(C)CCNC(=O)c1ccnc(Nc2cc3ccn(CCO)c(=O)c3c(NC(C)(C)C)n2)c1 [compound 683]
51 | CC(=O)c1ccnc(Nc2cc3ccn(CCO)c(=O)c3c(NC(C)(C)C)n2)c1 [compound 684]
62 | C/C(=N\O)c1ccnc(Nc2cc3ccn(CCO)c(=O)c3c(NC(C)(C)C)n2)c1 [compound 685, (E)-8-(tert-butylamino)-2-(2-hydroxyethyl)-6-(4-(1-(hydroxyimino)ethyl)pyridin-2-ylamino)-2,7-naphthyridin-1(2H)-one]
246 | C/C(=N\OCCN(C)C)c1ccnc(Nc2cc3ccn(CCO)c(=O)c3c(NC(C)(C)C)n2)c1 [compound 686]
248 | CC(C)(C)Nc1nc(Nc2cc(C(=O)NCCc3c[nH]cn3)ccn2)cc2ccn(CCO)c(=O)c12 [compound 687]
866 | CC(C)(C)Nc1nc(Nc2cc(C(=O)N3CCCC(CO)C3)ccn2)cc2ccn(CCO)c(=O)c12 (stereo not drawn) [compound 688]
151 | CC(C)(C)Nc1nc(Nc2cc(-c3ccno3)ccn2)cc2ccn(CCO)c(=O)c12 [compound 689]
67 | CC(C)(C)Nc1nc(Nc2cc(-c3ccn[nH]3)ccn2)cc2ccn(CCO)c(=O)c12 [compound 690, 6-(4-(1H-pyrazol-5-yl)pyridin-2-ylamino)-8-(tert-butylamino)-2-(2-hydroxyethyl)-2,7-naphthyridin-1(2H)-one]
59 | CC(C)(C)Nc1nc(Nc2cc(-c3ccnc(N)n3)ccn2)cc2ccn(CCO)c(=O)c12 [compound 691]
1020 | CC(C)(C)Nc1nc(Nc2nccs2)cc2ccn(CCO)c(=O)c12 [compound 692]
42 | CC(C)(C)Nc1nc(Nc2cc(CO)ccn2)cc2ccn(CCO)c(=O)c12 [compound 693]
237 | COCCNCc1ccnc(Nc2cc3ccn(CCO)c(=O)c3c(NC(C)(C)C)n2)c1 [compound 694]
431 | CO/N=C(\C)c1ccnc(Nc2cc3ccn(CCO)c(=O)c3c(NC(C)(C)C)n2)c1 [compound 695]
